Laboratory results as given in ChEMBL document CHEMBL1770079, “Discovery of small molecule human FPR1 receptor antagonists” (Bioorg Med Chem Lett, 2011).
Values after ≈ are worked out from the molar mass of the structure shown. Values belong to the compound of their own block, whether it stands above or below them. Active and inactive are the calls of the source. No cut-off for these calls is given here.

What was measured:
fMet-Leu-Phe receptor [1] = biological target: T1, fMet-Leu-Phe receptor (Homo sapiens, UniProt P21462); assay: (§1) Intrinsic activity at FPR1 in human neutrophils assessed as increase in calcium mobilization by FLIPR assay relative to fMLF; type: functional
T1 sequence (P21462 whole entry): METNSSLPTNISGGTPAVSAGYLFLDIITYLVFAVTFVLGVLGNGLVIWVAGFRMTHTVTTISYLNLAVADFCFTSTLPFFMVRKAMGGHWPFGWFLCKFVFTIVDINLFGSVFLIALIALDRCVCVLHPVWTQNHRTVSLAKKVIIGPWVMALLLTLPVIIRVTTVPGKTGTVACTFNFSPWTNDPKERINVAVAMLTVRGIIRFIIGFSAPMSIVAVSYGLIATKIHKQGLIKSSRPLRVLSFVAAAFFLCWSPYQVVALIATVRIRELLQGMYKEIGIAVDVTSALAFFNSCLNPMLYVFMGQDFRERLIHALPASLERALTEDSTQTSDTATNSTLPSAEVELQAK

[2] = biological target: T2, fMet-Leu-Phe receptor (Homo sapiens) (UniProt P21462); assay: (§2) Agonist activity at FPR1 in human neutrophils assessed as increase in calcium mobilization by FLIPR assay; type: functional; set-up: concentration or dose not given beside the values; conditions: concentration not given here
T2 sequence (whole entry): T1 sequence (P21462 whole entry)

fMet-Leu-Phe receptor [3] = biological target: T1, fMet-Leu-Phe receptor; assay: as §2; type: functional
[4] = biological target: T2, fMet-Leu-Phe receptor (Homo sapiens); assay: as §1; type: functional
[5] = biological target: T2, fMet-Leu-Phe receptor (Homo sapiens); assay: Antagonist activity at FPR1 in human neutrophils assessed as inhibition of fMLF-stimulated calcium mobilization at 50 uM by FLIPR assay; type: functional
[6] = biological target: T3, N-formyl peptide receptor 2 (Homo sapiens) (UniProt P25090); assay: Antagonist activity at FPR2 in human neutrophils assessed as inhibition of SHHGtide-stimulated intracellular calcium mobilisation at 50 uM by FLIPR assay; type: functional, cell-based
T3 sequence (whole entry): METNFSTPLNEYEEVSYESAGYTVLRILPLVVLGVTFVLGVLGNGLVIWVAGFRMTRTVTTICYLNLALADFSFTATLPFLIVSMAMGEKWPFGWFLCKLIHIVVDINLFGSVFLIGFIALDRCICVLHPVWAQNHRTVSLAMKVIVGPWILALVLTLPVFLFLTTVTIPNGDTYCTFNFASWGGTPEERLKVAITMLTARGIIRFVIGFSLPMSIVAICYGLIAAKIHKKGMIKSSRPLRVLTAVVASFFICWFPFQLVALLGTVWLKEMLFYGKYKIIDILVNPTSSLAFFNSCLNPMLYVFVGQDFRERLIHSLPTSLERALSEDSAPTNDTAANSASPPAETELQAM

THP-1 = assay: Cytotoxicity against human THP1 cells assessed as cell viability after 24 hrs by Alamar blue assay; type: cell-based; conditions: THP-1, 24 h
[7] = Intrinsic clearance in human microsomes; type: ADME, Microsome
[8] = Solubility of the compound in 0.1 M phosphate buffer; type: physicochemical
[9] = Antagonist activity at rat FPR1 expressed in HEK293 cells assessed as inhibition of fMLF-stimulated intracellular calcium mobilisation by FLIPR assay; type: functional, cell-based
[10] = biological target: T4, C-X-C chemokine receptor type 2 (Homo sapiens) (UniProt P25025); assay: Antagonist activity at CXCR2 in human neutrophils assessed as inhibition of GROalpha-stimulated intracellular calcium mobilization at 50 uM by FLIPR assay; type: functional, cell-based
T4 sequence (whole entry): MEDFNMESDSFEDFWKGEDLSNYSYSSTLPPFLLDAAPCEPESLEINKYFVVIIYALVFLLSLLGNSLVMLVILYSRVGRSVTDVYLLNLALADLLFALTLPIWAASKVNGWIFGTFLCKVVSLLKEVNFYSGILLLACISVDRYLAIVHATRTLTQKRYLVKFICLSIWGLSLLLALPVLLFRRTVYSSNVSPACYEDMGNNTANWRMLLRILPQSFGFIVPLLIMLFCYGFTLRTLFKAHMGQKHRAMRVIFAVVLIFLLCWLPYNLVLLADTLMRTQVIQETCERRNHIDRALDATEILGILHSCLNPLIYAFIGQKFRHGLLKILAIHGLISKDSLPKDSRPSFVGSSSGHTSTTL

fMet-Leu-Phe receptor [11] = biological target: T1, fMet-Leu-Phe receptor; assay: Antagonist activity at FPR1 in human neutrophils assessed as inhibition of fMLF-stimulated degranulation after 15 mins by fluorescence assay; type: functional
[12] = biological target: T2, fMet-Leu-Phe receptor (Homo sapiens); assay: Reversible inhibition of FPR1 in human neutrophils assessed as inhibition of fMLF-stimulated calcium mobilisation by FLIPR assay; type: functional
fMet-Leu-Phe receptor [13] = biological target: T5, fMet-Leu-Phe receptor (Mus musculus, UniProt P33766); assay: Antagonist activity at mouse FPR1 expressed in HEK293 cells assessed as inhibition of fMLFF-stimulated intracellular calcium mobilisation by FLIPR assay; type: functional, cell-based
T5 sequence (P33766 whole entry): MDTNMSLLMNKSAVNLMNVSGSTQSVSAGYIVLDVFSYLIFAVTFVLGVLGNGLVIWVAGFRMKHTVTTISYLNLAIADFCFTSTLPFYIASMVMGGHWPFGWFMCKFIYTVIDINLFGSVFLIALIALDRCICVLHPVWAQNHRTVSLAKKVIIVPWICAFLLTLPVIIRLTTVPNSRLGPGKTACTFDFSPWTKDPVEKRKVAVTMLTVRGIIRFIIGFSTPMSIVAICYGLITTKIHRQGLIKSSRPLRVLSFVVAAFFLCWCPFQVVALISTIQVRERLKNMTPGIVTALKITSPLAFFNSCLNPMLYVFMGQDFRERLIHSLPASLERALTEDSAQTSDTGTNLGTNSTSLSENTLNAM

fMet-Leu-Phe receptor [14] = biological target: T1, fMet-Leu-Phe receptor; assay: Antagonist activity at FPR1 in human neutrophils assessed as inhibition of fMLF-stimulated calcium mobilization by FLIPR assay; type: functional
[15] = biological target: T2, fMet-Leu-Phe receptor (Homo sapiens); assay: Agonist activity at FPR1 in human neutrophils assessed as increase in calcium mobilization at 50 uM by FLIPR assay; type: functional
Hepatocyte = assay: Intrinsic clearance in Sprague-Dawley rat hepatocytes; type: ADME, cell-based, Liver
fMet-Leu-Phe receptor [16] = biological target: T1, fMet-Leu-Phe receptor; assay: Displacement of [3H]fMLF from human FPR1 expressed in CHO cells by scintillation counting; type: cell-based
fMet-Leu-Phe receptor [17] = biological target: T1, fMet-Leu-Phe receptor; assay: Antagonist activity at human FPR1 in expressed in HEK293 cells assessed as inhibition of fMLF-stimulated intracellular calcium mobilisation after 5 mins by FLIPR assay; type: functional, cell-based
[18] = biological target: T6, C5a anaphylatoxin chemotactic receptor 1 (Homo sapiens) (UniProt P21730); assay: Antagonist activity at C5aR in human neutrophils assessed as inhibition of C5a-stimulated intracellular calcium mobilization at 50 uM by FLIPR assay; type: functional, cell-based
T6 sequence (whole entry): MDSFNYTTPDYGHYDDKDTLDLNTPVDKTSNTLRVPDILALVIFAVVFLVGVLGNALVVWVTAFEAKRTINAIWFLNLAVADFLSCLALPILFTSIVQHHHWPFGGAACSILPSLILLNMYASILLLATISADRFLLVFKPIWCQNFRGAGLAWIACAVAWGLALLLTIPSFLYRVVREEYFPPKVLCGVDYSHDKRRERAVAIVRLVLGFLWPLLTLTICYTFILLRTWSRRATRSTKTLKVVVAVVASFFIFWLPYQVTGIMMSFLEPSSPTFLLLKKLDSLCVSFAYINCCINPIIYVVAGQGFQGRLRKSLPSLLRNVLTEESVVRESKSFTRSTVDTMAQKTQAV

[19] = Chemical stability of the compound assessed as half life; type: physicochemical
[20] = biological target: T2, fMet-Leu-Phe receptor (Homo sapiens); assay: Antagonist activity at FPR1 in human neutrophils assessed as inhibition of PMA-stimulated neutrophil degranulation after 15 mins by fluorescence assay; type: functional
fMet-Leu-Phe receptor [21] = biological target: T1, fMet-Leu-Phe receptor; assay: Antagonist activity at FPR1; type: functional

- IC50 (fMet-Leu-Phe receptor [1]): 2510 nM
SMILES: Cc1cccc(C)c1NC(=O)C(NC(=O)c1nc2ccccc2[nH]c1=O)c1ccc(Cl)cc1 (stereo not given)

- IC50 (fMet-Leu-Phe receptor [1]): 10000 nM
SMILES: CSCCC(NC(=O)c1ocnc1C)c1nc2ccccc2[nH]1 (stereo not given)

- inhibition [5]: < 25%
SMILES: COc1ccccc1C(=O)NC(C(=O)Nc1c(C)cccc1C)c1ccc(Cl)cc1 (stereo not given)

- IC50 (fMet-Leu-Phe receptor [1]): 79.4 nM
SMILES: Cc1cccc(C(NC(=O)c2ccccc2O)C(=O)Nc2c(C)cccc2C)c1C (stereo not given)

- IC50 (fMet-Leu-Phe receptor [1]): 1000 nM
SMILES: CCC[C@H](NC(=O)c1oc2ccc(OCC)cc2c1C)c1nc2ccccc2[nH]1

- IC50 (fMet-Leu-Phe receptor [1]): 10000 nM
SMILES: Cc1cccc(C)c1NC(=O)C(c1ccccc1)N(C)C(=O)c1ccccc1O (stereo not given)

- Ki (fMet-Leu-Phe receptor [21]): 100 nM
SMILES: CCc1cc2c(=O)c(-c3nc4ccccc4n3C)c(C)oc2cc1OC(C)=O

The next lines start with the compound.

SMILES: Cc1cccc(C)c1NC(=O)C(NC(=O)c1ccccc1O)c1cn(C)cn1 (stereo not given)
- IC50 (fMet-Leu-Phe receptor [1]): 1580 nM

SMILES: CSCCC(NC(=O)c1ccccc1)c1nc2ccccc2n1Cc1ccccc1 (stereo not given)
- inhibition [2]: < 25%
- IC50 (fMet-Leu-Phe receptor [1]): 2510 nM

SMILES: CSCCC(NC(=O)C1CCCCC1)c1nc2ccccc2[nH]1 (stereo not given)
- IC50 (fMet-Leu-Phe receptor [1]): 2510 nM

SMILES: CCOc1ccc2oc(C(=O)N[C@@H](CSC)c3nc4ccccc4[nH]3)c(C)c2c1
- IC50 (fMet-Leu-Phe receptor [1]): > 25100 nM

SMILES: CSCCC(NC(=O)c1ccccc1O)c1nc2ccccc2[nH]1 (stereo not given)
- IC50 (fMet-Leu-Phe receptor [1]): 3980 nM

SMILES: CCOc1ccc2oc(C(=O)NC(CCSC)c3nc4cnccc4[nH]3)c(C)c2c1 (stereo not given)
- EC50 (fMet-Leu-Phe receptor [3]): 1580 nM
- IC50 (fMet-Leu-Phe receptor [1]): 1000 nM
- Intrinsic activity [4]: 0.8

SMILES: CCOc1ccc2oc(C(=O)NC(CCSC)c3nc4ncncc4[nH]3)c(C)c2c1 (stereo not given)
- inhibition [2]: < 25%
- IC50 (fMet-Leu-Phe receptor [1]): 5010 nM

SMILES: Cc1ccccc1C(=O)NC(C(=O)Nc1c(C)cccc1C)c1ccc(Cl)cc1 (stereo not given)
- inhibition [5]: < 25%

SMILES: CCOc1ccc2oc(C(=O)NC(c3nc4ccccc4[nH]3)c3cccs3)c(C)c2c1 (stereo not given)
- inhibition [5]: < 25%

SMILES: Cc1ccc(C(NC(=O)c2ccccc2O)C(=O)Nc2c(C)cccc2C)s1 (stereo not given)
- inhibition [6]: < 25%
- IC50 (THP-1): 79400 nM
- microsomal CLint [7]: 43 µL/min/mg
- solubility [8]: 68 µM (≈ 26.8 µg/mL)
- IC50 [9]: 1260 nM
- IC50 (fMet-Leu-Phe receptor [1]): 316 nM
- inhibition [10]: < 25%
- IC50 (fMet-Leu-Phe receptor [11]): 398 nM
- inhibition [12]: Active
- IC50 (fMet-Leu-Phe receptor [13]): 25100 nM
- IC50 (fMet-Leu-Phe receptor [14]): 398 nM
- inhibition [15]: < 25%
- CL (Hepatocyte): 70 µL/min
- IC50 (fMet-Leu-Phe receptor [16]): 100 nM
- IC50 (fMet-Leu-Phe receptor [17]): 1580 nM
- inhibition [18]: < 25%
- half-life [19]: > 10.8 days
- inhibition [20]: < 25%

SMILES: CSCCC(NC(=O)c1ccccc1)c1nc2ccccc2[nH]1 (stereo not given)
- IC50 (fMet-Leu-Phe receptor [1]): 5010 nM

SMILES: CCOc1ccc2oc(C(=O)NC(CCSC)c3nc4ncccc4[nH]3)c(C)c2c1 (stereo not given)
- inhibition [2]: < 25%
